Measurements: patent US12227485B2, “Compounds useful for the treatment of infection with Mannheimia haemolytica or Histophilus somni” (Intervet Inc., priority 2018, dated 2025)
Values after ≈ are worked out from the molar mass of the structure shown.

How the values were obtained:
Mannheimia haemolytica = experiment: MIC by broth-microdilution method (CLSI VET01-A4), Mannheimia haemolytica strains; format: cell-based; conditions: for MIC MH 6357: Mannheimia haemolytica MH 6357 (M7/2), reference strain (cattle infection strain); for MIC MH 6374: Mannheimia haemolytica MH 6374 (ATCC 33396), reference strain; for MIC MH 10720: Mannheimia haemolytica MH 10720 (154); for MIC MH 10720 / MIC MH 12587 / MIC MH 13093: BRD field isolate; for MIC MH 12587: Mannheimia haemolytica MH 12587 (1071), macrolide-resistance: erm+, E+; for MIC MH 13093: Mannheimia haemolytica MH 13093 (XB0472-6014.1)
Procedure: (§1) For example, representative compounds were tested against Mannheimia haemolytica and Pasteurella multocida, using the conventional broth-dilution assay.
(§2) The Minimum inhibitory concentrations (MIC) of compounds according to the invention for a number of veterinary bacterial pathogens were determined by the broth-microdilution method according to CLSI document VET01-A4.
(§3) Microdilution trays containing a doubling dilution series of the test compound were used for the tests. The MIC results were interpreted according to the CLSI documents VET01-S3. The lowest concentration of compound at which no visible growth (i.e. no turbidity) detected by the unaided eye was recorded as the MIC.

Pasteurella multocida = experiment: MIC by broth-microdilution method (CLSI VET01-A4), Pasteurella multocida strains; format: cell-based; conditions: for MIC PM 6267: Pasteurella multocida PM 6267 (P 2225 (L386)), reference strain (mouse infection strain); for MIC PM 6391: Pasteurella multocida PM 6391 (ATCC 43137), reference strain; for MIC PM 10775: Pasteurella multocida PM 10775 (080130003051); for MIC PM 10775 / MIC PM 12080: BRD field isolate; for MIC PM 12080: Pasteurella multocida PM 12080 (IV102277-0093)
Procedure: as §1, §2, §3

Row | SMILES | MIC MH 6357 (Mannheimia haemolytica) | MIC MH 6374 (Mannheimia haemolytica) | MIC MH 10720 (Mannheimia haemolytica) | MIC MH 12587 (Mannheimia haemolytica) | MIC MH 13093 (Mannheimia haemolytica) | MIC PM 6267 (Pasteurella multocida) | MIC PM 6391 (Pasteurella multocida) | MIC PM 10775 (Pasteurella multocida) | MIC PM 12080 (Pasteurella multocida)
1 | COCCNCc1ccc(C#Cc2ccc3c(NC(C(=O)NO)C(C)(C)N)ncnc3c2)cc1 (racemic) [Compound 18] | 25 µM (≈ 11.6 µg/mL) | 25 µM (≈ 11.6 µg/mL) | 6.3 µM (≈ 2.91 µg/mL) | 50 µM (≈ 23.1 µg/mL) | 25 µM (≈ 11.6 µg/mL) | 3.1 µM (≈ 1.43 µg/mL) | 6.3 µM (≈ 2.91 µg/mL) | 0.8 µM (≈ 0.37 µg/mL) | 12.5 µM (≈ 5.78 µg/mL)
2 | C[C@@H](O)[C@H](Nc1ncnc2cc(C#Cc3ccc(CN4CCOCC4)cc3)ccc12)C(=O)NO [Compound 1] | 1.6 µM (≈ 0.738 µg/mL) | 3.1 µM (≈ 1.43 µg/mL) | 0.2 µM (≈ 0.0923 µg/mL) | 3.1 µM (≈ 1.43 µg/mL) | 3.1 µM (≈ 1.43 µg/mL) | 1.6 µM (≈ 0.738 µg/mL) | 0.2 µM (≈ 0.0923 µg/mL) | ≤0.1 µM | ≤0.1 µM
3 | C[C@@H](O)[C@H](Nc1ncnc2cc(C#Cc3ccc(CNC4CC4)cc3)ccc12)C(=O)NO [Compound 2] | 0.8 µM (≈ 0.345 µg/mL) | 1.6 µM (≈ 0.69 µg/mL) | ≤0.1 µM | 3.1 µM (≈ 1.34 µg/mL) | 3.1 µM (≈ 1.34 µg/mL) | 1.6 µM (≈ 0.69 µg/mL) | 0.2 µM (≈ 0.0863 µg/mL) | ≤0.1 µM | ≤0.1 µM
4 | COCCNCc1ccc(C#Cc2ccc3c(N[C@H](C(=O)NO)[C@@H](C)O)ncnc3c2)cc1 [Compound 3] | 6.3 µM (≈ 2.83 µg/mL) | 6.3 µM (≈ 2.83 µg/mL) | 6.3 µM (≈ 2.83 µg/mL) | 12.5 µM (≈ 5.62 µg/mL) | 6.3 µM (≈ 2.83 µg/mL) | 0.2 µM (≈ 0.0899 µg/mL) | 0.4 µM (≈ 0.18 µg/mL) | ≤0.1 µM | 3.1 µM (≈ 1.39 µg/mL)
5 | C=CCNCc1ccc(C#Cc2ccc3c(N[C@H](C(=O)NO)[C@@H](C)O)ncnc3c2)cc1 [Compound 4] | 1.6 µM (≈ 0.69 µg/mL) | 3.1 µM (≈ 1.34 µg/mL) | 1.6 µM (≈ 0.69 µg/mL) | 6.3 µM (≈ 2.72 µg/mL) | 3.1 µM (≈ 1.34 µg/mL) | 0.2 µM (≈ 0.0863 µg/mL) | 0.4 µM (≈ 0.173 µg/mL) | ≤0.1 µM | 1.6 µM (≈ 0.69 µg/mL)
6 | C[C@@H](O)[C@H](Nc1ncnc2cc(C#Cc3ccc(CNCc4ccccc4)cc3)ccc12)C(=O)NO [Compound 5] | 0.8 µM (≈ 0.385 µg/mL) | 0.8 µM (≈ 0.385 µg/mL) | 0.8 µM (≈ 0.385 µg/mL) | 3.1 µM (≈ 1.49 µg/mL) | 1.6 µM (≈ 0.77 µg/mL) | ≤0.1 µM | 0.2 µM (≈ 0.0963 µg/mL) | ≤0.1 µM | 0.8 µM (≈ 0.385 µg/mL)
7 | C[C@@H](O)[C@H](Nc1ncnc2cc(C#Cc3ccc(CNCC(F)(F)F)cc3)ccc12)C(=O)NO [Compound 6] | 0.8 µM (≈ 0.379 µg/mL) | 0.8 µM (≈ 0.379 µg/mL) | 0.4 µM (≈ 0.189 µg/mL) | 1.6 µM (≈ 0.758 µg/mL) | 0.8 µM (≈ 0.379 µg/mL) | ≤0.1 µM | ≤0.1 µM | ≤0.1 µM | 0.4 µM (≈ 0.189 µg/mL)
8 | C[C@@H](O)[C@H](Nc1nsc2cc(C#Cc3ccc(CNC4CC4)cc3)ccc12)C(=O)NO [Compound 10] | 0.2 µM (≈ 0.0873 µg/mL) | 0.4 µM (≈ 0.175 µg/mL) | ≤0.1 µM | 0.8 µM (≈ 0.349 µg/mL) | 0.4 µM (≈ 0.175 µg/mL) | ≤0.1 µM | >100 µM | ≤0.1 µM | ≤0.1 µM
9 | C=CCNCc1ccc(C#Cc2ccc3c(N[C@H](C(=O)NO)[C@@H](C)O)nsc3c2)cc1 [Compound 11] | 0.4 µM (≈ 0.175 µg/mL) | 0.4 µM (≈ 0.175 µg/mL) | ≤0.1 µM | 1.6 µM (≈ 0.698 µg/mL) | 0.8 µM (≈ 0.349 µg/mL) | ≤0.1 µM | 0.2 µM (≈ 0.0873 µg/mL) | ≤0.1 µM | 0.4 µM (≈ 0.175 µg/mL)
10 | COCCNCc1ccc(C#Cc2ccc3c(N[C@H](C(=O)NO)[C@@H](C)O)nsc3c2)cc1 [Compound 12] | 0.8 µM (≈ 0.364 µg/mL) | 0.8 µM (≈ 0.364 µg/mL) | 0.2 µM (≈ 0.0909 µg/mL) | 3.1 µM (≈ 1.41 µg/mL) | 1.6 µM (≈ 0.727 µg/mL) | ≤0.1 µM | >100 µM | ≤0.1 µM | 0.8 µM (≈ 0.364 µg/mL)
11 | C[C@@H](O)[C@H](Nc1nsc2cc(C#Cc3ccc(CN4CCOCC4)cc3)ccc12)C(=O)NO [Compound 13] | 3.1 µM (≈ 1.45 µg/mL) | 6.3 µM (≈ 2.94 µg/mL) | 1.6 µM (≈ 0.747 µg/mL) | 6.3 µM (≈ 2.94 µg/mL) | 3.1 µM (≈ 1.45 µg/mL) | ≤0.1 µM | 100 µM (≈ 46.7 µg/mL) | ≤0.1 µM | 1.6 µM (≈ 0.747 µg/mL)
12 | C[C@@H](O)[C@H](Nc1nsc2cc(C#Cc3ccc(CNCc4ccccc4)cc3)ccc12)C(=O)NO [Compound 14] | 0.8 µM (≈ 0.389 µg/mL) | 0.8 µM (≈ 0.389 µg/mL) | ≤0.1 µM | 1.6 µM (≈ 0.779 µg/mL) | 0.8 µM (≈ 0.389 µg/mL) | ≤0.1 µM | 100 µM (≈ 48.7 µg/mL) | ≤0.1 µM | 0.2 µM (≈ 0.0973 µg/mL)
13 | C[C@@H](O)[C@H](Nc1nsc2cc(C#Cc3ccc(CNCC(F)(F)F)cc3)ccc12)C(=O)NO [Compound 15] | 1.6 µM (≈ 0.766 µg/mL) | 1.6 µM (≈ 0.766 µg/mL) | ≤0.1 µM | 3.1 µM (≈ 1.48 µg/mL) | 1.6 µM (≈ 0.766 µg/mL) | ≤0.1 µM | >100 µM | ≤0.1 µM | 0.4 µM (≈ 0.191 µg/mL)
